{"source": "patent US9730940B2", "about": "“Purine inhibitors of human phosphatidylinositol 3-kinase delta” (priority 2012, dated 2017)", "key": {"PI3K-alpha": {"molecular_target": "PI3K-alpha (Homo sapiens (Human), UniProt P42336)", "sequence (P42336 whole entry, looked up, canonical isoform)": "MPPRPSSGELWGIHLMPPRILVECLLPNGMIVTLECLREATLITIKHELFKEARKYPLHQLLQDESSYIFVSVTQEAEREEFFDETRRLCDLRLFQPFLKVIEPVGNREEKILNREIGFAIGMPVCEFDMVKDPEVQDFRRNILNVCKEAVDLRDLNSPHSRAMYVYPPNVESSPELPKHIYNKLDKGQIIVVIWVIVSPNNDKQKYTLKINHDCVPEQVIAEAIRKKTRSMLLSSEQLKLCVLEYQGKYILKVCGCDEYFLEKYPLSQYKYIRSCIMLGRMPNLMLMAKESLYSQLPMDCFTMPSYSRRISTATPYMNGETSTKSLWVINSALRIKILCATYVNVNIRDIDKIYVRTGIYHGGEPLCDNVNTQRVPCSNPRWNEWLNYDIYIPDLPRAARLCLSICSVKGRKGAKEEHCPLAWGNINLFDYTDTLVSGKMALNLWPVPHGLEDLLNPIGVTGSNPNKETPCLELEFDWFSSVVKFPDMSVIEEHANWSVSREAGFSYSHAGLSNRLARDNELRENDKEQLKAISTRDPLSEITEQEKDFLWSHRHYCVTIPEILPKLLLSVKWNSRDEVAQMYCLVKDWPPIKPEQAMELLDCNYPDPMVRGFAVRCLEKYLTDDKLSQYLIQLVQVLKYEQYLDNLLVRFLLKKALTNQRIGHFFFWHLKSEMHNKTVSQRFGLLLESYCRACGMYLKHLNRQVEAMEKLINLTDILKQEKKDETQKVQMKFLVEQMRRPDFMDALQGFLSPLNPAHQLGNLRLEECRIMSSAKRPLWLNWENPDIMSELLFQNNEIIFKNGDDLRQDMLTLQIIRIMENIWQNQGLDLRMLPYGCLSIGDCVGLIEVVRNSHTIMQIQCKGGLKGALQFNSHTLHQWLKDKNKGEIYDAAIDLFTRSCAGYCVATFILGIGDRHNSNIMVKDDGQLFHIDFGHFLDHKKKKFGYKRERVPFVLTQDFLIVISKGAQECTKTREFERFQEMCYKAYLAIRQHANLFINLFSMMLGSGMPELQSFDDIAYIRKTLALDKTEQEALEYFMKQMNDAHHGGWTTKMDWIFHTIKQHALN", "sequence (P27986 whole entry partner, looked up, canonical isoform)": "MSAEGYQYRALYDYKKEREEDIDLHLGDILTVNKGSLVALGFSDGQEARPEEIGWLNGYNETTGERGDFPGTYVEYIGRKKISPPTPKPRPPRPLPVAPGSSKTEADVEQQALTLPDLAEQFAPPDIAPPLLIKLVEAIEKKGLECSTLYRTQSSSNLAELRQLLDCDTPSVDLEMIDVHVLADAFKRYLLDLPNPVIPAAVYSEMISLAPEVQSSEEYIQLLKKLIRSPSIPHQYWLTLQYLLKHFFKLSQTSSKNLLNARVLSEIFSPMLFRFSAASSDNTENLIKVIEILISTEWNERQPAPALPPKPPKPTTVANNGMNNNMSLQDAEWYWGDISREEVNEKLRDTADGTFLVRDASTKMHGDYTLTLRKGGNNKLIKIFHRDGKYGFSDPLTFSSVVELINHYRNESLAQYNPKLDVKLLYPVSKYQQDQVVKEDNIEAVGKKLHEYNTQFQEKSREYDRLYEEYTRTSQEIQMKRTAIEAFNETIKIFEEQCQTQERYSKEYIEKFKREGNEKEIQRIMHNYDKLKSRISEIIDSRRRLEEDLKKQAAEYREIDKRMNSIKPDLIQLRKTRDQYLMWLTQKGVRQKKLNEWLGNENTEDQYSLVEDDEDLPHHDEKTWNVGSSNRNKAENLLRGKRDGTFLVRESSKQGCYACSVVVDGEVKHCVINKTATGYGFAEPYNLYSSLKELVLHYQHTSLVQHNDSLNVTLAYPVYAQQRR", "assay": "HTRF PI3K biochemical assay, alpha isoform", "details": "ratio PI3K-alpha IC50 value/PI3K-delta IC50 value"}, "PI3K-delta": {"molecular_target": "PI3K-delta (Homo sapiens (Human), UniProt O00329)", "sequence (O00329 whole entry, looked up, canonical isoform)": "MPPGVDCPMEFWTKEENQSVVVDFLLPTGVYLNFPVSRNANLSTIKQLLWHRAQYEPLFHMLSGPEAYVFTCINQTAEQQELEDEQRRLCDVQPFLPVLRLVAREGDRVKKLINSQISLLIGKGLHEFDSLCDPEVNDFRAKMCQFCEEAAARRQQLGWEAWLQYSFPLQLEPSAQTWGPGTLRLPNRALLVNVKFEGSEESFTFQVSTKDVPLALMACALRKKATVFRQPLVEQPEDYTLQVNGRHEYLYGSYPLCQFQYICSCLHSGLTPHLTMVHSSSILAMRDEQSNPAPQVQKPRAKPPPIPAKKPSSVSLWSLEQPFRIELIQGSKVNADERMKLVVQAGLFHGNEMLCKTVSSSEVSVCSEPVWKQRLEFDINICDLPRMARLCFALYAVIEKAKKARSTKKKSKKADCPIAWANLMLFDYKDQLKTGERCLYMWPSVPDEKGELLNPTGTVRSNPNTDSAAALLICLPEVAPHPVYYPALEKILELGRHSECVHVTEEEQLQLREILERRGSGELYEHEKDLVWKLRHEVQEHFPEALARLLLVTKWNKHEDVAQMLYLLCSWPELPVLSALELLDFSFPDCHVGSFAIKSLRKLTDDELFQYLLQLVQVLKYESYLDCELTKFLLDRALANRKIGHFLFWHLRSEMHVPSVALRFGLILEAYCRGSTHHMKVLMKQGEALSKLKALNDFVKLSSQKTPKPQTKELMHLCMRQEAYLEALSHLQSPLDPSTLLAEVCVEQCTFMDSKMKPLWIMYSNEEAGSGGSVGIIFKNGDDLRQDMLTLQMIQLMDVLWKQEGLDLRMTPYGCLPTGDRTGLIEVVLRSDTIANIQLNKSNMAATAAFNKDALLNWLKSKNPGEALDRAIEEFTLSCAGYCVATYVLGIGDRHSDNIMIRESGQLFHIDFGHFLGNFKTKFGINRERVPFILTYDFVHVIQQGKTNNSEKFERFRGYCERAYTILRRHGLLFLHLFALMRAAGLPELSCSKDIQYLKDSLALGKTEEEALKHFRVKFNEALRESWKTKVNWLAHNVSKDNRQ", "sequence (P27986 whole entry partner, looked up, canonical isoform)": "as the sequence (P27986 whole entry partner, looked up, canonical isoform) above", "assay": "biochemical", "details": "PI3Kdelta IC50, HTRF biochemical assay; compound form screened given", "excerpt": "HTRF PI3K Biochemical Assay to Measure Intrinsic Potency of Compound Inhibitors\nThe PI3-Kinase biochemical assays were developed to measure the intrinsic potency and compound dependent inhibition of the alpha, beta, delta, and gamma PI3K isoform enzymes. This assay was developed and further optimized from a kit produced by Upstate (Millipore catalog #33-047) and has been configured for HTS and SAR screening. Briefly, this procedure exploits the exquisite specificity and high affinity binding of enzyme reaction substrate phosphatidyl(3,4,5)triphosphate (PIP3) to the GRP1 pleckstrin homology (PH) domain to generate the signal. In the absence of PIP3, an HTRF (Homogeneous Time-Resolved Fluorescence energy transfer) complex is formed consisting of europium (Eu)-labeled anti-GST, GST tagged GRP1-PH domain, biotin-PIP3 and streptavidin conjugated APC. The native PIP3 produced by PI3-Kinase activity disrupts in a competitive manner the biotin-PIP3 from the PH domain, resulting in the loss of energy transfer (HTRF complex) and a decrease in the signal. The format of this assay is the same for all 4 isoforms of PI3K; the differences lie in the concentration of enzyme used to achieve robust assay window. The alpha, beta, and delta assays are run at 0.5, 1, and 0.3 nM enzymes and the gamma assay is run at 5 nM enzyme. The ATP concentration is 100 uM in the alpha, beta, and delta assays and 50 uM ATP in the gamma assay. All reactions are run at 5 uM PIP2.\nCompounds are serially diluted (3-fold in 100% DMSO) across a 384-well polypropylene source plated from column 3 to column 12 and column 13 to column 22, to yield 10 concentration dose response for each test compound. Columns 1, 2, 23 and 24 contain either only DMSO or pharmacological known control inhibitor.\nThe PI3-Kinase biochemical assay was optimized using the HTRF kit provided by Upstate (Millipore). The assay kit contains six reagents: 1) 4× Reaction Buffer; 2) native PIP2 (substrate); 3) Stop (EDTA); 4) Detection Mix A (Streptavidin-APC); 5) Detection Mix B (Eu-labeled Anti-GST plus GST-tagged PH-domain); 6) Detection Mix C.\nPI3Kinase Reaction Buffer is prepared by dilution the stock 1:4 with de-ionized water. […] Enzyme addition and compound pre-incubation are initiated by the addition of 1.25 ul of PI3K (at twice its final concentration) in the 1× reaction buffer to all wells using a BioRaptor. Plates are incubated at room temperature for 15 minutes. Reactions are initiated by addition of 1.25 ul of 2× substrate solution (PIP2 and ATP in 1× reaction buffer) using BioRaptor. Plates are incubated in humidified chamber at room temperature for one hour. Reactions are quenched by addition of 0.625 uL of stop solution to all wells using the BioRaptor. The quenched reactions are then processed to detect product formation by adding 0.625 uL of Detection Solution to all wells using the BioRaptor (Detection mix C, Detection Mix A, and Detection Mix B combined together in an 18:1:1 ratio prepared 2 hours prior to use).\nThe loss of the HTRF signal is due to the displacement of biotinylated-PIP3 from the PH domain by the PI3K-dependent conversion of PIP2 to PIP3. […] All data were calculated using the ratio of acceptor (APC) to donor (Europium) fluorescence in each well of the assay plate. […] An IC50 was then calculated fitting the % inhibition data to the equation: % inhibition=min+(Max−min)/1+([inhibitor]/IC50)^n) where min is the % inhibition […], max is the signal in DMSO control, and n is the Hill slope."}}, "data": [{"compound": "CCn1c(-c2cnc(C)nc2)nc2c(O[C@@H]3CN(C(=O)C4CC4)CC3(C)C)ncnc21", "note": "(racemic) [Compound 3-62, racemic-6-{[1-(cyclopropylcarbonyl)-4,4-dimethylpyrrolidin-3-yl]oxy}-9-ethyl-8-(2-methylpyrimidin-5-yl)-9H-purine]", "values": [{"measurement": "Relative Selectivity versus PI3Kalpha", "setting": "PI3K-alpha", "result": ">10"}, {"measurement": "IC50", "setting": "PI3K-delta", "result": 2.3, "unit": "nM"}]}, {"compound": "CCn1c(-c2cnc(C)nc2)nc2c(O[C@H]3CCN(C(=O)C4CC45CCCC5)C3)ncnc21", "note": "(single isomer, unassigned) [Compound 2-122, 9-ethyl-8-(2-methylpyrimidin-5-yl)-6-{[(3S)-1-((R or S)-spiro[2.4]hept-1-ylcarbonyl)pyrrolidin-3-yl]oxy}-9H-purine]", "values": [{"measurement": "Relative Selectivity versus PI3Kalpha", "setting": "PI3K-alpha", "result": ">10"}, {"measurement": "IC50", "setting": "PI3K-delta", "result": 16, "unit": "nM"}]}, {"compound": "CCn1c(-c2cnc(C)nc2)nc2c(O[C@H]3CCN(C(=O)C4CC45CCCC5)C3)ncnc21", "note": "(single isomer, unassigned) [Compound 2-123, 9-ethyl-8-(2-methylpyrimidin-5-yl)-6-{[(3S)-1-((R or S)-spiro[2.4]hept-1-ylcarbonyl)pyrrolidin-3-yl]oxy}-9H-purine]", "values": [{"measurement": "Relative Selectivity versus PI3Kalpha", "setting": "PI3K-alpha", "result": ">10"}, {"measurement": "IC50", "setting": "PI3K-delta", "result": "< 1", "unit": "nM"}]}, {"compound": "CCn1c(-c2cnc(C)nc2)nc2c(O[C@H]3CCN(C(=O)N4CCC4C)C3)ncnc21", "note": "(single isomer, unassigned) [Compound 5-15, 9-ethyl-6-({(3S)-1-[((2R or 2S)-methylazetidin-1-yl)carbonyl]pyrrolidin-3-yl}oxy)-8-(2-methylpyrimidin-5-yl)-9H-purine]", "values": [{"measurement": "Relative Selectivity versus PI3Kalpha", "setting": "PI3K-alpha", "result": ">10"}, {"measurement": "IC50", "setting": "PI3K-delta", "result": 6.2, "unit": "nM"}]}, {"compound": "CCn1c(-c2cnc(C)nc2)nc2c(O[C@H]3CCN(C(=O)N4CCC4C)C3)ncnc21", "note": "(single isomer, unassigned) [Compound 5-16, 9-ethyl-6-({(3S)-1-[((2R or 2S)-methylazetidin-1-yl)carbonyl]pyrrolidin-3-yl}oxy)-8-(2-methylpyrimidin-5-yl)-9H-purine]", "values": [{"measurement": "Relative Selectivity versus PI3Kalpha", "setting": "PI3K-alpha", "result": ">10"}, {"measurement": "IC50", "setting": "PI3K-delta", "result": 16, "unit": "nM"}]}]}
